From US20260193274A1, “AKT1 MODULATORS” (Alterome Therapeutics, Inc., priority 2022, published 2026) come the findings set out here.

SMILES strings stand for the structures.

T1 sequence (P31749 whole entry E17K): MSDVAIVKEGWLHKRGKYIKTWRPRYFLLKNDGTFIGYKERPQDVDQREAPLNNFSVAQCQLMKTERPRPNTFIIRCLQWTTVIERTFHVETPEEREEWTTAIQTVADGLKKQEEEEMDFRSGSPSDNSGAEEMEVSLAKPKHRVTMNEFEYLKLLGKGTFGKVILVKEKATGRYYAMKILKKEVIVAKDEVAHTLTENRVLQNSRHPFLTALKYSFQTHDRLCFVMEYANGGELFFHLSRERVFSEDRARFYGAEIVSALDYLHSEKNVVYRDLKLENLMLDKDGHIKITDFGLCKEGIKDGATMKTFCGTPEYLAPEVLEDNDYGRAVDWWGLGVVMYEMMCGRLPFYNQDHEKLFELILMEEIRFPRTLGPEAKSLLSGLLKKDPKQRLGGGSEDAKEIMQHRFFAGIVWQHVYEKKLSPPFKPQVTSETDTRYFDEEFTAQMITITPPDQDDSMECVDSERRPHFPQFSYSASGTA

This experiment has as its target T1, AKT1-E17K (Homo sapiens, UniProt P31749, E17K).
T1 construct: host or cells: HEK-293 (ATCC CRL-1573)
In words: NanoBRET Target Engagement (TE) Assay. The experiment is classed as cell-based. The settings on record: full length AKT E17K NanoLuc fusion in transfected HEK-293 cells; 2 hr equilibration with tracer and compound. From the text:
NanoBRET is a highly specific and validated cell-based technique for assessing target engagement (Vasta et al., 2018, Cell Chem Biol. 25(2):206-214). The NanoBRET™ Target Engagement (TE) Intracellular Kinase Assays are based on the NanoBRET™ System (Promega Corporation), an energy transfer technique designed to measure molecular proximity in living cells. The NanoBRET™ TE Assays measure the apparent affinity of test compounds by competitive displacement of the NanoBRET™ tracer compound, which is a cell permeable molecule engineered to be reversibly bound to a NanoLuc® luciferase-kinase fusion expressed in cells. For compound screening, when a test compound binds to the selected kinase, the BRET signal is attenuated. For kinase inhibitors in particular, intracellular target selectivity is fundamental to pharmacological mechanism and allows the proteins of interest to be in the correct cellular confirmation. Although non-cell-based techniques have been developed to measure kinase binding or enzymatic inhibition with accuracy and precision, such approaches can fail to accurately predict engagement of the full-length target protein in the more complex and biologically relevant cellular context (Knight and Shokat, 2005, Chem. Biol. 12, 621-637; Smyth and Collins, 2009, J. Chem. Biol. 2, 131-151). […] Briefly, HEK-293 cells (ATCC Cat #CRL-1573) were used for transfection purposes using FuGENE HD Transfection Reagent (Promega Cat #E2311). All cells were evaluated for viability prior to transfection and optimization of the transfection was done prior to experimentation. Greater than 95% viability was used for all experiments. Following transfection, cells were washed and resuspended in Opti-MEM. NanoBRET assays were performed in white, 384-well plates (Corning) at a density of 2×10^5 cells/well. All example compounds were prepared as concentrated stock solutions in DMSO (Sigma-Aldrich). Compounds are dissolved in DMSO to make 10 mM stock solution. Example compounds were transferred as 40 μL of 10 mM stock solution to a 384 pp-plate (LABCYTE, PP-0200) and diluted in 3-fold, 10-point dilution via transferring […] by Apricot liquid handler. A Labcyte ECHO 550 compound dispenser was used to facilitate compound transfer directly to cells. Cells were equilibrated for 2 hr with energy transfer probes and example compound prior to BRET measurements. The AKTE17K (Promega Cat #NV2421) as well as specific probe (NanoBRET tracer, Promega Cat #N264B) was prepared at a concentration of 20× in tracer dilution buffer (12.5 mM HEPES, 31.25% PEG-400, pH 7.5). For target engagement analysis, the energy transfer probes were added to the cells at concentrations optimized for the target in question (AKT E17K). Following compound incubation, NanoBRET NanoGlo Substrate (Promega Cat #N157D) and Extracellular Nanoluc Inhibitor (Promega Cat #N235C) was added according to the manufacturer's recommended protocol, and luminescence was measured on Envision Reader (Perkin Elmer) Multimode Luminometer equipped with 450 nmBPfilter (donor) and 600 nmLPfilter (acceptor), using 0.5 s integration time. Milli-BRET units (mBU) are calculated by multiplying the raw BRET values by 1000. Apparent tracer affinity values (EC50) were determined using the sigmoidal dose-response (variable slope). Competitive displacement data were then plotted and data were fit to determine the EC50 value for each example compound.
(In BRET a luciferase serves as donor, and the signal depends on an acceptor being close.)
One may read the IC50 as the concentration that inhibits the measured activity by half. The low end stands for greater potency in that assay, the high end for weaker potency in that assay. For `C[C@H]1CN(Cc2ccc(-n3c(-c4cccnc4N)nc4ccc(-c5ccccc5)nc43)cc2)C[C@H](C)N1C#N` [Example 25, (2S,6S)-4-(4-(2-(2-Aminopyridin-3-yl)-5-phenyl-3H-imidazo[4,5-b]pyridin-3-yl)benzyl)-2,6-dimethylpiperazine-1-carbonitrile], the IC50 fell in the range of 60 to 600 nM.

The compound `C[C@@H]1CN(Cc2ccc(-n3c(-c4cccnc4N)nc4ccc(-c5ccccc5)nc43)cc2)C[C@@H](C)N1C#N` [Example 26, (2R,6R)-4-(4-(2-(2-Aminopyridin-3-yl)-5-phenyl-3H-imidazo[4,5-b]pyridin-3-yl)benzyl)-2,6-dimethylpiperazine-1-carbonitrile] gave an IC50 of over 600 nM.

`C[C@@H]1CN(Cc2ccc(-n3c(-c4cccnc4N)nc4ccc(-c5ccccc5)nc43)cc2)CCN1C#N` [Example 27, (R)-4-(4-(2-(2-Aminopyridin-3-yl)-5-phenyl-3H-imidazo[4,5-b]pyridin-3-yl)benzyl)-2-methylpiperazine-1-carbonitrile] came in with an IC50 of over 600 nM.

`N#CN1C2CCC1CN(Cc1ccc(-n3c(-c4cccnc4N)nc4ccc(-c5ccccc5)nc43)cc1)C2` [Example 28, 3-(4-(2-(2-Aminopyridin-3-yl)-5-phenyl-3H-imidazo[4,5-b]pyridin-3-yl)benzyl)-3,8-diazabicyclo[3.2.1]octane-8-carbonitrile] came in with an IC50 of 60 to 600 nM. `N#CN1CC2CCC(C1)N2Cc1ccc(-n2c(-c3cccnc3N)nc3ccc(-c4ccccc4)nc32)cc1` [Example 29, 8-(4-(2-(2-Aminopyridin-3-yl)-5-phenyl-3H-imidazo[4,5-b]pyridin-3-yl)benzyl)-3,8-diazabicyclo[3.2.1]octane-3-carbonitrile] registered an IC50 of 15 to 60 nM.

In turn, `N#CNC1CCCN(Cc2ccc(-n3c(-c4cccnc4N)nc4ccc(-c5ccccc5)nc43)cc2)CC1` (stereo not shown) [Example 30, N-(1-(4-(2-(2-Aminopyridin-3-yl)-5-phenyl-3H-imidazo[4,5-b]pyridin-3-yl)benzyl)azepan-4-yl)cyanamide] yielded an IC50 of 15 to 60 nM.

For `N#CNC1CCCCN(Cc2ccc(-n3c(-c4cccnc4N)nc4ccc(-c5ccccc5)nc43)cc2)C1` (stereo not shown) [Example 31, N-(1-(4-(2-(2-Aminopyridin-3-yl)-5-phenyl-3H-imidazo[4,5-b]pyridin-3-yl)benzyl)azepan-3-yl)cyanamide], the IC50 was in the range of 60 to 600 nM. Under `C[C@H]1CN(Cc2ccc(-n3c(-c4cccnc4N)nc4ccc(-c5ccccc5)nc43)cc2)CCN1C#N` [Example 32, (S)-4-(4-(2-(2-Aminopyridin-3-yl)-5-phenyl-3H-imidazo[4,5-b]pyridin-3-yl)benzyl)-2-methylpiperazine-1-carbonitrile] stands over 600 nM; under `N#CN1CCN(Cc2ccc(-n3c(-c4cccnc4N)nc4ccc(-c5ccccc5)nc43)cc2)CC12CC2` [Example 33, 7-(4-(2-(2-Aminopyridin-3-yl)-5-phenyl-3H-imidazo[4,5-b]pyridin-3-yl)benzyl)-4,7-diazaspiro[2.5]octane-4-carbonitrile], 60 to 600 nM.

In the case of `N#CN1C[C@@H]2C[C@H]1CN2Cc1ccc(-n2c(-c3cccnc3N)nc3ccc(-c4ccccc4)nc32)cc1` [Example 34, (1S,4S)-5-(4-(2-(2-Aminopyridin-3-yl)-5-phenyl-3H-imidazo[4,5-b]pyridin-3-yl)benzyl)-2,5-diazabicyclo[2.2.1]heptane-2-carbonitrile], the IC50 is 60 to 600 nM.

Regarding `N#CN1C[C@H]2C[C@@H]1CN2Cc1ccc(-n2c(-c3cccnc3N)nc3ccc(-c4ccccc4)nc32)cc1` [Example 35, (1R,4R)-5-(4-(2-(2-Aminopyridin-3-yl)-5-phenyl-3H-imidazo[4,5-b]pyridin-3-yl)benzyl)-2,5-diazabicyclo[2.2.1]heptane-2-carbonitrile], the IC50 was in the range of 60 to 600 nM. Under `C[C@@H]1CN(Cc2ccc(-n3c(-c4cccnc4N)nc4ccc(-c5ccccc5)nc43)cc2)C[C@H](C)N1C#N` [Example 36, (2S,6R)-4-(4-(2-(2-Aminopyridin-3-yl)-5-phenyl-3H-imidazo[4,5-b]pyridin-3-yl)benzyl)-2,6-dimethylpiperazine-1-carbonitrile] stands over 600 nM; under `N#CN1CC2CCC1CN2Cc1ccc(-n2c(-c3cccnc3N)nc3ccc(-c4ccccc4)nc32)cc1` (stereo not shown) [Example 37, 5-(4-(2-(2-Aminopyridin-3-yl)-5-phenyl-3H-imidazo[4,5-b]pyridin-3-yl)benzyl)-2,5-diazabicyclo[2.2.2]octane-2-carbonitrile], 60 to 600 nM. Under `N#CN1CCC2(C1)CN(Cc1ccc(-n3c(-c4cccnc4N)nc4ccc(-c5ccccc5)nc43)cc1)C2` [Example 38, 2-(4-(2-(2-Aminopyridin-3-yl)-5-phenyl-3H-imidazo[4,5-b]pyridin-3-yl)benzyl)-2,6-diazaspiro[3.4]octane-6-carbonitrile] stands under 15 nM; under `N#CN1CCCC2(C1)CN(Cc1ccc(-n3c(-c4cccnc4N)nc4ccc(-c5ccccc5)nc43)cc1)C2` [Example 39, 2-(4-(2-(2-Aminopyridin-3-yl)-5-phenyl-3H-imidazo[4,5-b]pyridin-3-yl)benzyl)-2,6-diazaspiro[3.5]nonane-6-carbonitrile], 60 to 600 nM.

The compound `N#CN1CC[C@]2(CCN(Cc3ccc(-n4c(-c5cccnc5N)nc5ccc(-c6ccccc6)nc54)cc3)C2)C1` [Example 40, (S)-7-(4-(2-(2-Aminopyridin-3-yl)-5-phenyl-3H-imidazo[4,5-b]pyridin-3-yl)benzyl)-2,7-diazaspiro[4.4]nonane-2-carbonitrile] registered an IC50 of under 15 nM. Compound `[2H]C([2H])([2H])N(C#N)C1CCN(Cc2ccc(-n3c(-c4cccnc4N)nc4ccc(-c5ccccc5)nc43)cc2)CC1` [Example 41, N-(1-(4-(2-(2-Aminopyridin-3-yl)-5-phenyl-3H-imidazo[4,5-b]pyridin-3-yl)benzyl)piperidin-4-yl)-N-(methyl-d3)cyanamide] displayed an IC50 of 15 to 60 nM. As for `N#CNN1CCN(Cc2ccc(-n3c(-c4cccnc4N)nc4ccc(-c5ccccc5)nc43)cc2)CC1` [Example 42, N-(4-(4-(2-(2-Aminopyridin-3-yl)-5-phenyl-3H-imidazo[4,5-b]pyridin-3-yl)benzyl)piperazin-1-yl)cyanamide], the 50% inhibitory concentration (IC50) is under 15 nM. Under `N#CN1C[C@@H]2CN(Cc3ccc(-n4c(-c5cccnc5N)nc5ccc(-c6ccccc6)nc54)cc3)C[C@@H]2C1` [Example 43, (3aR,6aS)-5-(4-(2-(2-Aminopyridin-3-yl)-5-phenyl-3H-imidazo[4,5-b]pyridin-3-yl)benzyl)hexahydropyrrolo[3,4-c]pyrrole-2(1H)-carbonitrile] stands 60 to 600 nM.
